Consider 8 compounds from paper PMC6287197, “Eukaryotic Cell Toxicity and HSA Binding of [Ru(Me4phen)(bb7)]^2+ and the Effect of Encapsulation in Cucurbit[10]uril” (Frontiers in Chemistry, 2018).

Read-outs that look alike come from different tables or passages of the source. Where only a bound is given, the exact number is not on record here.

The test system of data set [1] is Caco-2 (human epithelial colorectal adenocarcinoma) cell line. Kind of data set: MTT toxicity assay against Caco-2 cells. It counts as cell-based. As for the experimental part: (§1) BHK (baby hamster kidney); Caco-2 (heterogeneous human epithelial colorectal adenocarcinoma); and Hep-G2 (liver carcinoma). All cell lines were cultured in 75 mL culture flasks in DMEM culture media (Dulbecco's Modified Eagle's Medium, Gibco, Thermo Fisher, UK) supplemented with 10% fetal bovine serum (Gibco, Thermo Fisher, UK), 1% MEM Non-Essential Amino Acid (Sigma, UK) and 1% penicillin-streptomycin (Sigma) at 37°C in an atmosphere of 5% humidified CO2. Cells used in the study were in the logarithmic growth phase, and unless stated were grown to 70% confluence, and then trypsinized with 0.5% trypsin-EDTA (Gibco, Canada) for detachment and use in the assays. […] The cells were cultured in 96-well microtiter plates containing the respective media to a cell density of 3,000 per well at 37°C in an atmosphere of air containing 5% CO2. Cell viability was assessed after continuous exposure to various concentrations of drugs (ranging from 0.5 to 400 μM) for 24 and 48 h. […] The amount of MTT reduced to formazan within the cells was quantified by measuring the absorbance at λ = 570 nm using a Fluostar Galaxy Microplate Reader. The average values presented are based on at least three independent experiments. The IC50 values were determined using GraphPad Prism 7.0 (GraphPad Software, San Diego, USA).
A general note: Tetrazolium assays rely on reduction of a dye to a coloured formazan, in cell work by metabolically active cells.

Data set [2] addresses T1, human serum albumin (HSA) (Homo sapiens, UniProt P02768).
T1 construct: purchased Sigma-Aldrich
Description: HSA binding by tryptophan fluorescence quenching. To be noted: for Kapp (apparent HSA binding constant) / binding number n for HSA binding: [Ru complex]/[HSA] ratio 0 to 2.4, 0.1 M sodium phosphate pH 7.4. As for the experimental part: All solutions used in the protein binding studies were dissolved in a 0.1 M sodium phosphate buffer (pH = 7.4). Protein solutions (5 μM) were titrated with the ruthenium complexes from 2 mM stock solutions, from a metal complex/protein ratio of 0.0 to 8.0. […] All experiments were carried out in triplicate, with results presented as mean and standard deviation.
The static quenching via binding of the ruthenium complexes to HSA can be represented as: nRu+HSA→nRu⋯ HSA where nRu…HSA denotes the quenched ruthenium complex/HSA species. A double-logarithm equation of log10[(F0-F)/F] vs. log10[Ru] can then be used to express the equilibrium between the free and bound ruthenium(II) complex to determine the apparent binding constant (Kapp) and the binding number (n) (Krause-Heuer et al., [2012]). log [F0-F/F]=log10Kapp+nlog10[Ru]
It was not possible to determine a single apparent HSA binding constant, as a linear relationship was not observed over the entire concentration range of added ruthenium complex in the plot of log10[(F0 – F)/F] vs. log10[Ru]. However, two distinct linear sections could be found in the analysis of the double logarithm, corresponding to ruthenium complex to HSA ratios of (a) 0 to 2.4 and (b) 2.4 to 8. As previously observed (Li et al., [2013b]), the two binding ratio regions represent an initial 1:1 binding at low ruthenium complex concentration (ratios 0–2.4), and then upon addition of further ruthenium complex, a region (2.4–8) where multiple ruthenium complexes (≥ 2:1) are bound to HSA. The higher affinity 1:1 HSA binding constant Kapp and the binding numbers n for the ruthenium complexes determined at low ratios of added ruthenium complex are summarized in Table 2.

The subject of data set [3] is BHK (baby hamster kidney) cell line. Description: MTT toxicity assay against BHK cells. It counts as cell-based. The procedure: as §1, with “h. Cisplatin served as a treatment evaluation standard.” for “h.”
For data set [4], the system named is Hep-G2 (human hepatocellular carcinoma) cell line. Description: MTT toxicity assay against Hep-G2 cells. It counts as cell-based. The procedure: as §1, with “h. Cisplatin served as a treatment evaluation standard.” for “h.”
For data set [5], the target named is T1, human serum albumin (HSA). More on the design: method as in Li et al., 2013b. To be noted: ref Li et al., 2013b; cited from earlier work.
Details of data set [6]: method as in Li et al., 2017. To be noted: mice, ref Li et al., 2017; cited from earlier work.
For another data set, the system named is BHK cells. Description: Confocal microscopy of cellular accumulation in BHK cells. It counts as cell-based, hamster. The procedure: The trypsinized BHK cells were seeded on sterile, poly L-lysine coated, coverslips in a 24-well plate. The ruthenium complex was applied to the cells in growth media to make the desired concentration (25 μM) and incubated at 37°C with 5% CO2 for 1 h. Following the incubation, 100 nM Mitotracker® Green FM (Invitrogen) was added for mitochondrial staining. Staining was carried out in DMEM medium under standard cultivation conditions as per the manufacturer's instructions. Following staining, the coverslips were gently rinsed with phosphate buffer solution (PBS, pH = 7.1) prior to confocal laser scanning microscopy.
The cellular accumulation of the ruthenium complex was determined using a laser scanning confocal microscope (FV3000, Olympus). Samples were viewed under 60× silicone immersion using the following excitation (λex) and emission (λem) wavelengths. Ruthenium complex (λex = 450 nm, λem = 630 nm) and Mitotracker Green FM (λex = 490 nm, λem = 516 nm) were excited using a blue argon laser (λex = 488 nm), and emissions were collected at λ = 600–650 nm for the ruthenium complex and λ = 500–550 nm for Mitotracker Green. […] The luminescence intensity of cis-α-[Ru(Me4phen)(bb7)]^2+ inside the BHK cells was quantified using the surface rendering function of Imaris 9.2.1 software, and the data analyzed for statistical difference using the Wilcoxon-test and t-test methods.

Data set [7] deals with eukaryotic cells (BHK, Hep-G2, Caco-2). Kind of data set: Toxicity to the panel of eukaryotic cell lines (comparisons). It counts as cell-based. As for the experimental part:
as §1, with “h. Cisplatin served as a treatment evaluation standard.” for “h.”

Details of data set [8]: method as in Sun et al., 2018. The note with it: ref Sun et al., 2018; cited from earlier work.
In data set [9] the test system is Gram-positive and Gram-negative bacteria. To be noted: 2018, cited from earlier work; for MIC: Gram-positive and Gram-negative bacteria, ref Gorle et al., 2015, Sun et al.
Where [10] appears, read: 24-h incubation, read-out: IC50 Caco-2 24 h.
The mark [11] stands for this setting: 48-h incubation, read-out: IC50 Caco-2 48 h.
[12] abbreviates: 24-h incubation, read-out: IC50 BHK 24 h.
Where [13] appears, read: 48-h incubation, read-out: IC50 BHK 48 h.
[14] abbreviates: 24-h incubation, read-out: IC50 Hep-G2 24 h.
Setting [15] is: 48-h incubation, read-out: IC50 Hep-G2 48 h.

T1 sequence (P02768 25-609): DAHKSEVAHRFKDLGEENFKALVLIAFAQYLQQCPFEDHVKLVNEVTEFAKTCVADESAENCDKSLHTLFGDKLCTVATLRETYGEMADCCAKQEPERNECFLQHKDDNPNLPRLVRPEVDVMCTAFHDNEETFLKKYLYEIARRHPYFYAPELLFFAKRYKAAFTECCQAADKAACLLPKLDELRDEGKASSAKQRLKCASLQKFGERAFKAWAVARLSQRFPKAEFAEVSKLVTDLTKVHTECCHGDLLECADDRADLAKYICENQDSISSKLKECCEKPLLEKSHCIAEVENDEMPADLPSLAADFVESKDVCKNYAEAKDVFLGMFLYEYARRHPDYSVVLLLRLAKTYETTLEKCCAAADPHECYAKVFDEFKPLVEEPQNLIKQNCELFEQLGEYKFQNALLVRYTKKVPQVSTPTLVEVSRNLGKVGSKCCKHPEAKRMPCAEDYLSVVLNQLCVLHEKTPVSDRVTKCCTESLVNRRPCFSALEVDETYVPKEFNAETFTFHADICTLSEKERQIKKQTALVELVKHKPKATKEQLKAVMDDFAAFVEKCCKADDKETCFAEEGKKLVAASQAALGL

Broadly, the IC50 is the point on the concentration scale where inhibition reaches its midpoint. Consider `Cc1cnc2c(ccc3c(C)c(C)cnc32)c1C.Cc1cnc2c(ccc3c(C)c(C)cnc32)c1C.Cc1cnc2c(ccc3c(C)c(C)cnc32)c1C.[Ru+2]` [(Me4phen)3, [Ru(Me4phen)3]^2+, reference compound], for which the IC50 in data set [1] (setting [10]) was 220 ± 43 µM; in data set [1] (setting [11]), 265 ± 13 µM; in [3] (setting [12]), 157 ± 25 µM; in [3] (setting [13]), 111 ± 23 µM; in data set [4] (setting [14]), 253 ± 60 µM; in [4] (setting [15]), 72 ± 31 µM. For the same compound, the “Kapp (apparent HSA binding constant)” value in data set [2] is on record as 0.12 ± 0.03 × 10^5 (M)^−1. In addition, the “binding number n for HSA binding” value in data set [2] is listed as 0.81.
Take `N.N.[Cl][Pt][Cl]` [Cisplatin, reference compound]: the IC50 in data set [3] (setting [12]) was above 400 µM; in [3] (setting [13]), 146 ± 8 µM; in [4] (setting [14]), 314 ± 8 µM; in data set [4] (setting [15]), 12 ± 3 µM.
In the case of `Cc1ccnc(-c2cc(CCCCCCCCCCCCc3ccnc(-c4cc(C)ccn4)c3)ccn2)c1.[Ru+2].[Ru+2].c1cnc2c(c1)ccc1cccnc12.c1cnc2c(c1)ccc1cccnc12.c1cnc2c(c1)ccc1cccnc12.c1cnc2c(c1)ccc1cccnc12` [Rubb12, [{Ru(phen)2}2{μ-bb12}]^4+, reference compound], the IC50 was 10 ± 1 µM in data set [1] (setting [10]); 8 ± 3 µM in [1] (setting [11]); 44 ± 9 µM in [3] (setting [12]); 41 ± 7 µM in data set [3] (setting [13]); 55 ± 12 µM in data set [4] (setting [14]); 15 ± 5 µM in data set [4] (setting [15]). Further, the “Kapp (HSA binding), previously determined” value in data set [5] is 470000 M⁻¹. Moreover, the “effect of Q[10]-binding on HSA binding affinity” value in data set [5] is “decreased the affinity”. For the same compound, in data set [6], the “amount of complex in serum after intravenous injection” value is “decreased very rapidly”.
A word on the log P: it is a log measure of how a compound divides between an organic and an aqueous phase. One may read the MIC as the lowest concentration that inhibits growth of the organism. Turning to `Cc1ccnc(-c2cc(CCCCCCCc3ccnc(-c4cc(C)ccn4)c3)ccn2)c1.Cc1cnc2c(ccc3c(C)c(C)cnc32)c1C.[Ru+2]` [α-Me4phen-7, cis-α-[Ru(Me4phen)(bb7)]^2+], in the data set on BHK cells (BHK cells, […] μM, 1-h incubation), the “level of cellular accumulation, free vs Q[10]-encapsulated (luminescence intensity per cell)” value is “no difference”. The “nuclear localization in BHK cells” value in the data set on BHK cells (preliminary confocal microscopy) is recorded as “did not localize in the nucleus”. Further, the IC50 was above 400 µM in data set [1] (setting [10]); above 400 µM in data set [1] (setting [11]); above 400 µM in data set [3] (setting [12]); 168 ± 5 µM in data set [3] (setting [13]); 162 ± 14 µM in data set [4] (setting [14]); 142 ± 8 µM in data set [4] (setting [15]). Moreover, the “fold higher HSA binding affinity on Q[10]-encapsulation” value in data set [2] (Q[10]-encapsulated vs free) is on record as 3–4 fold. Moreover, the “Kapp (apparent HSA binding constant)” value in [2] is listed as 4.6 ± 0.90 × 10^5 (M)^−1. Moreover, in [2], the “binding number n for HSA binding” value came out at 1.14. Besides, the “fold tighter HSA binding than α-phen-12 and α-Me2phen-7” value in data set [2] (from Kapp) is reported as “approximately 10 fold”. Moreover, in data set [7] (based on 48-h incubation toxicity to BHK and Hep-G2 cells), the “fold decrease in toxicity by Q[10]-encapsulation” value is listed as 2–3 fold. The “fold less toxic to eukaryotic cells than α-phen-12” value in data set [7] (from IC50 values) is listed as 2–5 fold. Besides, in data set [8], the “log P” value is on record as −1.33. Moreover, the minimum inhibitory concentration (MIC) in [9] is 1 to 10 µM. In data set [9] (ref Sun et al.), the “fold lower antimicrobial activity to Gram-negative bacteria than Rubb12” value was “≈ 2 fold”.
Regarding `Cc1ccnc(-c2cc(CCCCCCCc3ccnc(-c4cc(C)ccn4)c3)ccn2)c1.O=[N+]([O-])c1cc2cccnc2c2ncccc12.[Ru+2]` [α-NO2phen-7, cis-α-[Ru(NO2phen)(bb7)]^2+], the IC50 is 121 ± 18 µM in data set [1] (setting [10]); 126 ± 6 µM in data set [1] (setting [11]); above 400 µM in data set [3] (setting [12]); above 400 µM in data set [3] (setting [13]); 141 ± 29 µM in data set [4] (setting [14]); 99 ± 29 µM in data set [4] (setting [15]). For the same compound, the “Kapp (apparent HSA binding constant)” value in [2] was 23.5 ± 4.9 × 10^5 (M)^−1. For the same compound, the “binding number n for HSA binding” value in data set [2] came out at 1.27. The “log P” value in data set [8] is listed as −1.58.
`Cc1ccnc(-c2cc(CCCCCCCc3ccnc(-c4cc(C)ccn4)c3)ccn2)c1.[Ru+2].c1cnc2c(c1)ccc1cccnc12` [α-phen-7, cis-α-[Ru(phen)(bb7)]^2+]: the IC50 in [1] (setting [10]) was above 400 µM; in data set [1] (setting [11]), 219 ± 43 µM; in data set [3] (setting [12]), above 400 µM; in data set [3] (setting [13]), 250 ± 42 µM; in [4] (setting [14]), 319 ± 26 µM; in data set [4] (setting [15]) it was 312 ± 15 µM. Moreover, the “Kapp (apparent HSA binding constant)” value in [2] was 0.10 ± 0.00 × 10^5 (M)^−1. Moreover, the “binding number n for HSA binding” value in [2] was 0.80.
Take `Cc1ccnc(-c2cc(CCCCCCCCCCCCc3ccnc(-c4cc(C)ccn4)c3)ccn2)c1.[Ru+2].c1cnc2c(c1)ccc1cccnc12` [α-phen-12, cis-α-[Ru(phen)(bb12)]^2+]: the IC50 in data set [1] (setting [10]) amounted to 227 ± 22 µM; in data set [1] (setting [11]), 177 ± 17 µM; in data set [3] (setting [12]) it was 92 ± 26 µM; in data set [3] (setting [13]), 85 ± 16 µM; in data set [4] (setting [14]), 94 ± 13 µM; in [4] (setting [15]), 19 ± 3 µM. Further, the “Kapp (apparent HSA binding constant)” value in data set [2] is given as 0.43 ± 0.17 × 10^5 (M)^−1. Also, the “binding number n for HSA binding” value in data set [2] is on record as 0.95. Besides, the “fold more toxic than α-Me4phen-7” value in data set [7] (eukaryotic cells, from IC50 values) is on record as 2–5 fold. Further, in [8], the log partition coefficient (log P) was −0.9. Further, the MIC in data set [9] is 1 to 10 µM.
Turning to “cis-α-[Ru(Me2phen)(bb7)]^2+ [α-Me2phen-7]”, the half-maximal inhibitory concentration (IC50) in data set [1] (setting [10]) was above 400 µM; in data set [1] (setting [11]) it was above 400 µM; in data set [3] (setting [12]), above 400 µM; in [3] (setting [13]), 250 ± 46 µM; in data set [4] (setting [14]), 358 ± 18 µM; in [4] (setting [15]) it was 151 ± 30 µM. The “Kapp (apparent HSA binding constant)” value in data set [2] is given as 0.29 ± 0.13 × 10^5 (M)^−1. Besides, the “binding number n for HSA binding” value in data set [2] was found to be 0.91.
